Measured values reported in patent US9090549B2, “1,4-naphthoquinones derivatives and therapeutic use thereof” (CENTRE NATIONAL DE LA RECHERCHE SCIENTIFIQUE (C.N.R.S.), priority 2008, dated 2015).
Like-named read-outs stand apart in the source and are kept apart here.

Legend:
[1] = biological target: T1, human glutathione reductase (hGR) (Homo sapiens, UniProt P00390); test: Inhibition of human glutathione reductase under steady-state conditions; type: biochemical; details: pH 6.9, 25° C., 1 mM GSSG, 100 μM NADPH
T1 sequence (P00390 44-522): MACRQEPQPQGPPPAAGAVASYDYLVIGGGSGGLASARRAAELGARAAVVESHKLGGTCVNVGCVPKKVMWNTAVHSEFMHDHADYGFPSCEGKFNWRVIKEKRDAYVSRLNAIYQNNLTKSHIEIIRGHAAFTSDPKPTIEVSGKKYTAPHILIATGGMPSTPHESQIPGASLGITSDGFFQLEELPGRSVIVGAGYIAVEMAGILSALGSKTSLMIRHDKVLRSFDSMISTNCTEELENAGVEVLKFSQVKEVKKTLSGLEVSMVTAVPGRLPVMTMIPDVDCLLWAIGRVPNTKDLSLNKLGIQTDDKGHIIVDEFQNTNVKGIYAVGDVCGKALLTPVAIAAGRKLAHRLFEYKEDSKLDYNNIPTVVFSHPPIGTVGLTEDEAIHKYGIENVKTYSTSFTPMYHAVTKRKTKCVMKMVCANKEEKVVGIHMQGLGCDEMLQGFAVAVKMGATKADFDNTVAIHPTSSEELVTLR

[2] = biological target: T2, P. falciparum glutathione reductase (PfGR) (Plasmodium falciparum, UniProt Q94655); test: biochemical
T2 sequence (Q94655 2-500 limits assumed): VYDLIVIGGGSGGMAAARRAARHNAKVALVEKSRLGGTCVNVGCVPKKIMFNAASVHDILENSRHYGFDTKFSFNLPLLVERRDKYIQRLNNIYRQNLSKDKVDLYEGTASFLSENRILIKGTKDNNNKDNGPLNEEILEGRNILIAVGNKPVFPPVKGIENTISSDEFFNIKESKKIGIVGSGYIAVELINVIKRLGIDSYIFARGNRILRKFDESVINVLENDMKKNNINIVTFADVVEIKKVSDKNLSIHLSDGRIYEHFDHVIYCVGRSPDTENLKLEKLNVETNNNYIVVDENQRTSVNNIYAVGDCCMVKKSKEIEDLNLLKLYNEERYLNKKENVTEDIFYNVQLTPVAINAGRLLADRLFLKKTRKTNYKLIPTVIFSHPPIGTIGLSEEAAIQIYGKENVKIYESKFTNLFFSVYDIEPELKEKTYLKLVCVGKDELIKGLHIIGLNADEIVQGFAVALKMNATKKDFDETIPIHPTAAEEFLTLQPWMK
Method: The standard assay was conducted at 25° C. in a 1 mL-cuvette. The assay mixture contained 100 μM NADPH and 1 mM GSSG in GR buffer (100 mM potassium phosphate buffer, 200 mM KCl, 1 mM EDTA, pH 6.9). […] Inhibitor stock solutions were prepared in 100% DMSO. 1% DMSO concentration was kept constant in the assay cuvette. The reaction was started by adding enzyme (8 mU human GR, 6.5 mU P. falciparum GR) and initial rates of NADPH oxidation were monitored at 340 nm (ε340 nm=6.22 mM^−1 cm^−1).

[3] = biological target: T2, P. falciparum glutathione reductase (PfGR); test: 1,4-Naphthoquinone reductase activity of P. falciparum glutathione reductase; type: biochemical; details: with respect to menadione
Method: The reduction assay mixture consisted of 100 mM potassium phosphate buffer pH 6.9, 200 mM KCl, 1 mM EDTA and 100 μM NADPH in a total volume of 1 mL. 1,4-naphthoquinone reductase activity was determined by recording the initial velocities in the presence of increasing naphthoquinone concentrations (0-300 μM). […] For the determination of KM and Vmax values, the steady-state rates were fitted by using nonlinear regression analysis software (Kaleidagraph) to the Michaelis-Menten equation. From these values, the turnover number kcat and the catalytic efficiency kcat/KM were calculated.

[4] = test system: P. falciparum chloroquine resistant strain K1; test: K1 growth inhibition, 3H-hypoxanthine assay; type: cell-based, Plasmodium falciparum; details: read-out: IC50 against Pf K1
Method: (§1) The IC50 values against Pf-GHA and MRC-5 were determined by using the less sensitive colorimetric NBT-based lactate dehydrogenase assay (Makler et al, Am. J. Trop. Med. Hyg. 1993, 48 (6), 739-741) based on redox-reactions.
(§2) Parasite Cultures. […] P. falciparum in vitro culture was carried out using standard protocols (Trager et al, 1976 Science, 193, 673-675) with modifications. Briefly, parasites were maintained in tissue culture flasks in human A Rh+ erythrocytes at 5% hematocrit in RPMI 1640 supplemented with 25 mM HEPES, 24 mM NaHCO3, 0.2% (w/v) glucose, 0.03% L-glutamine, 150 μM hypoxanthine, and 0.5% Albumax II® (Invitrogen) in a 5% CO2/air mixture at 37° C., and the medium was changed daily.
(§3) In Vitro Antiparasitic Bioassays. Drug susceptibility of P. falciparum was studied using a modified method (Cameron et al, 2004 J. Biol. Chem. 279, 31429-31439) of the protocol described previously (Desjardins et al, 1979). All assays included CQ diphosphate (Sigma, UK) as a standard and control wells with untreated infected and uninfected erythrocytes. IC50 values were derived by sigmoidal regression analysis (Microsoft Xlfit™).

[5] = test system: P. falciparum multidrug-resistant strain Dd2; test: Dd2 growth inhibition, 3H-hypoxanthine assay; type: cell-based, Plasmodium falciparum; details: Plasmodium falciparum, DD2, read-out: IC50 against Dd2
Method: The IC50 was tested by standard in vitro antiproliferation assays (Desjardins et al, 1979 Antimicrob. Agents Chemother 1979, 16, 710-718). Infected erythrocytes in ring stage (0.5% parasitemia, 2.5% hematocrit) in 96-well plates were exposed to the compounds for 48 h and then to radioactive hypoxanthine for 24 h. The amount of radioactivity in precipitable material served as an index of cell proliferation.

Pf H = test: microbe, parasite or virus in culture; details: Plasmodium falciparum, read-out: IC50 against Pf H
P. falciparum FCM29 = test: microbe, parasite or virus in culture; details: Plasmodium falciparum, 48 h
Method: (§4) Twelve parasite strains or isolates from a wide panel of countries (Africa (3D7), Brazil (Bre), Cambodia (K2 and K14), Cameroon (FCM29), Djibouti (Vol1), the Gambia (FCR3), Indochina (W2), Niger (L1), Senegal (8425), Sierra Leone (D6), and Uganda (PA)) were maintained in culture in RPMI 1640 (Invitrogen, Paisley, United Kingdom), supplemented with 10% human serum (Abcys S.A. Paris, France) and buffered with 25 mM HEPES and 25 mM NaHCO3. Parasites were grown in A-positive human blood under controlled atmospheric conditions that consists of 10% O2, 5% CO2 and 85% N2 at 37° C. with a humidity of 95%.
(§5) FQ and synthetic compounds were resuspended and then diluted in RPMI-DMSO (99 v/1 v) to obtain final concentration ranged from 0.125 to 500 nM. […]
(§6) For in vitro isotopic microtests, 25 μL/well of antimalarial drug and 200 μL/well of the parasitized red blood cell suspension (final parasitemia, 0.5%; final hematocrit, 1.5%) were distributed into 96 well plates. Parasite growth was assessed by adding 1 μCi of tritiated hypoxanthine with a specific activity of 14.1 Ci/mmol (Perkin-Elmer, Courtaboeuf, France) to each well at time zero. […] Radioactivity incorporated by the parasites was measured with a scintillation counter (Top Count; Perkin-Elmer).
(§7) The IC50 value was determined by non-linear regression analysis of log-based dose-response curves (Riasmart™, Packard, Meriden, USA).

P. berghei ANKA = test: In vivo 4-day suppressive test in P. berghei-infected mice; set-up: species or system Plasmodium berghei; details: for reduction of the parasitemia: Plasmodium Berghei ANKA-infected CD1 mice
Method: The in vivo tests in the mouse model were done according to a standard protocol (Peters et al Handbook of Animal Models of Infection; Academic Press, London, 1999; pp. 756-771). […] […] For administration, compounds were freshly prepared in 10% DMSO in sterile phosphate-buffered saline the day of use. Two hours post-infection mice received the first treatment by the intraperitoneal route. Mice were further treated on days +1-3. Blood films from tail blood were prepared on day +4, and parasitaemia was determined by microscopic examination of Giemsa-stained blood films. […] […] Mice were treated and levels of parasitemia determined as described.

[6] = test system: P. falciparum chloroquine sensitive strain 3D7; test: 3D7 growth inhibition, 3H-hypoxanthine assay; type: cell-based, Plasmodium falciparum; details: read-out: IC50 against Pf 3D7
Method: as §1, §2, §3

P. falciparum 3D7 = test: microbe, parasite or virus in culture; details: Plasmodium falciparum, 3D7, 48 h
Method: as §4, §5, §6, §7

Pf-GHA = Pf-GHA growth inhibition, colorimetric NBT-based lactate dehydrogenase assay; type: cell-based; details: Plasmodium falciparum, 72 h, read-out: IC50 against Pf-GHA
Method: as §1
In Vitro Antiparasitic Bioassays. The strain is maintained in RPMI-1640 medium supplemented with 0.37 mM hypoxanthine, 25 mM HEPES, 25 mM NaHCO3, and 10% O^+ human serum together with 2-4% washed human O^+ erythrocytes. All cultures and assays are conducted under an atmosphere of 4% CO2, 3% O2 and 93% N2. Assays are performed in 96-well microtiter plates, each well containing 10 μL of the watery compound dilutions together with 190 μL of the malaria parasite inoculum (1% parasitaemia, 2% HCT). After 72 h incubation, plates are frozen and stored at −20° C. After thawing, 20 μL of each well is transferred into another plate together with 100 μL Malstat reagent and 20 μL of 1/1 mixture of PES (phenazine ethosulfate, 0.1 mg/mL) and NBT (Nitro Blue Tetrazolium Grade III, 2 mg/mL). Change in colour is measured spectrophotometrically at 655 nm. The results are expressed as % reduction in parasitaemia compared to control wells. Compounds are treated at 5 concentrations (64-16-4-1 and 0.25 μM or μg/mL).

[7] = biological target: T2, P. falciparum glutathione reductase (PfGR); details: menadione against PfGR, Biot et al 2004; cited from earlier work
[8] = biological target: T1, human glutathione reductase (hGR); details: menadione reference, Bauer et al 2006; cited from earlier work
methemoglobin(Fe3+) = methemoglobin(Fe3+) (Homo sapiens, UniProt P68871+P69905); test: Redox-cycling of methemoglobin(Fe3+) into oxyhemoglobin(Fe2+) with NADPH/GR system; type: biochemical; details: 100 μM MetHb, NADPH, human GR
Chain of methemoglobin(Fe3+) (P69905 2-142 limits assumed): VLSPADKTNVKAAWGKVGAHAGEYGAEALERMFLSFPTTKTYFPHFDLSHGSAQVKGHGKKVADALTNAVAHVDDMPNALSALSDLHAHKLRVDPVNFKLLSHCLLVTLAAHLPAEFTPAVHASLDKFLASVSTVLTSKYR
Chain of methemoglobin(Fe3+) (P68871 2-147 limits assumed): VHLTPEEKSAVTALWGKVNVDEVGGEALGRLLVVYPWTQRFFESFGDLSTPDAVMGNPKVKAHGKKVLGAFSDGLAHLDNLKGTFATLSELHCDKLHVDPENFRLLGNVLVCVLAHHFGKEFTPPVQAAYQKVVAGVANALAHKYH
Excerpt: Since FPIX(Fe^2+) is an inhibitor of hematin polymerization, compounds displaying the ability to reduce FPIX(Fe^3+) into FPIX(Fe^2+) might synergistically contribute with GR inhibition to increased oxidative stress in infected-red blood cells. To evaluate the redox-cycling activity of FPIX(Fe^3+) into FPIX(Fe^2+) we set up an assay using the naphthoquinone, the glutathione reductase/NADPH-based system to regenerate the dihydronaphthoquinone continuously and methemoglobin(Fe^3+) (MetHb). The UV-spectrum of MetHb between 300 nm and 700 nm is characterized by a maximal absorbance at 405 nm and a broad band centered at around 630 nm. […] We used 20 μM methylene blue as positive control of this redox-cycling activity.
In an Eppendorf tube containing 6.4 mg MetHb dissolved in 885 μL GR buffer (47 mM potassium phosphate buffer pH 6.9, 200 mM KCl, 100 mM EDTA), 10 μL 20 mM P_TM25 dissolved in DMSO and 100 μL NADPH dissolved in GR buffer were added. The reaction was started by the addition of 5 μL human GR and then incubated at 37° C. In a 1 mL cuvette 20 μL of the reaction mixture was diluted with 980 μL GR buffer and a UV-spectra between 300 nm and 700 nm was done after 5 min, 10 min, 20 min and 30 min incubation time. The final concentrations in the reaction mixture were 100 μM MetHb, 200 μM P_TM25, 400 μM NADPH and […] hGR, final DMSO concentration 1%.
Spectra were measured after 5 min (blue), 10 min (black), 20 min (green) and 30 min (red).

[9] = biological target: T2, P. falciparum glutathione reductase (PfGR); details: menadione reference, Bauer et al 2006; cited from earlier work

CC1=C(C(O)c2ccc(Br)cc2)C(=O)c2ccccc2C1=O (centres unmarked) [P_TM23, 2-[(4-Bromo-phenyl)-hydroxy-methyl]-3-methyl-[1,4]naphthoquinone]
melting point: 61 to 62 °C | IC50 [1]: 1300 nM | IC50 [2]: 4500 nM | substrate behaviour from catalytic efficiencies kcat/KM [3]: very effective substrates

CCN(CC)CCCC(C)Nc1ccnc2cc(Cl)ccc12 (centres unmarked) [chloroquine, reference compound]
IC50 [4]: ~1000 nM | IC50 [5]: 291 nM | IC50 (Pf H): 217 nM | IC50 (P. falciparum FCM29; read-out: IC50 against strain FCM29): 879 nM | IC90 (P. falciparum FCM29; read-out: IC90 against strain FCM29): 1240 nM | reduction of the parasitemia (P. berghei ANKA; 1.0 mg/kg): 2.5% | reduction of the parasitemia (P. berghei ANKA; 3.0 mg/kg): 16.6% | inhibition of parasitaemia (P. berghei ANKA; 10 mg/kg i.p.): 98.9% | reduction of the parasitemia (P. berghei ANKA; 10.0 mg/kg): 94.9% | inhibition of parasitaemia (P. berghei ANKA; p.o. at 10 mg/kg/day, positive control): complete inhibition | IC50 [6]: ~20 nM | IC50 (P. falciparum 3D7; read-out: IC50 against strain 3D7): 21.3 nM | IC90 (P. falciparum 3D7; read-out: IC90 against strain 3D7): 40.4 nM | IC50 (Pf-GHA): 50 nM

CC1=CC(=O)c2ccccc2C1=O [menadione]
Km [7]: 82.2 µM | kcat [7]: 0.16 s⁻¹ | IC50 [8]: 27500 nM | concentration at which the shift of maximal absorbance of MetHb from 405 to 410 nm starts being visible (methemoglobin(Fe3+)): 50 µM | IC50 [9]: 42000 nM
